Assay [1] concerns E. coli MG1655. The format is cell-based, Escherichia coli.
The subject of assay [2] is E. coli MG1655. The format is cell-based, Escherichia coli. This is another data set of the same source.
Assay [3] deals with HL-60 cells. The experiment in a line: HL-60 responses to selected compounds at a range of concentrations. It counts as cell-based, human. As for the experimental part:
In this Example, methods for testing unattached cells for their ability to use various concentrations of selected carbon sources are described. The carbon sources used in this Example were identified by the methods disclosed in Example 27. Similarly, HL-60 cells were cultured as described in Example 27.
After washing, HL-60 cells were resuspended in DME-R. An aliquot of the cell suspension was counted by trypan blue exclusion and the cell density was adjusted to 6.67×10^5/mL. Fifty μL of DME-R were added to each well of the appropriate number of half area, 96-well plates, followed by 23 μL of the appropriate dilution of each test energy source. Stocks of 133 mM of each test chemical were prepared in tissue culture grade water, sterile filtered, and dilutions were prepared in a master plate so that, upon dilution in a total volume of 150 μL, the final concentrations would be 0.033 to 20 mM. Negative control wells received 23 μL of tissue culture grade water. The cells were plated at a volume of 75 μL/well, giving a final cell density of 5×10^4/well. For each plate containing energy sources and cells, a second, control plate containing only energy sources was prepared. Plates were incubated at 5% CO2, 90-100% humidity, and 37° C. for 24 hours prior to addition of the MTS/MPMS colorometric reagent (7.5 μL/well). The color formed in each well after an additional 24 hour incubation period, was measured on a plate reader at 490 nm with a reference wavelength of 650 nm. OD values from the control plate were subtracted from the OD values obtained with cells prior to normalizing the data to % negative control (cells without added energy source).

For assay [4], the system named is HepG2 cells. In words: HepG2 cells on flat bottom plastic wells, energy sources at a range of concentrations. Conditions: Homo sapiens, HepG2, 72 h, read-out: HepG2 Cells Responses After 72 hours in Culture and a 4 hour Color Development Period. It counts as cell-based, human. As for the experimental part: In this Example, methods for testing adherent cells for their ability to use multiple carbon sources are described. The human hepatocellular carcinoma cell line known as HepG2 (Knowles et al., Science, 209:497-499 [1980]) was chosen for this experiment. However, this application is not intended to be limited to the use of HepG2 cells, hepatocytes, carcinoma cells or even human cells.
HepG2 cells were grown in Falcon tissue culture flasks with vented tops. The culture medium used was Minimal Essential medium (MEM, Invitrogen 11095) with 1 g/L glucose, 2 mM L-glutamine, 2.2 g/L sodium bicarbonate, 10 mg/L phenol red, and supplemented with 0.1 mM Nonessential Amino Acids, 1 mM sodium pyruvate, 50 U/mL penicillin, 50 μg/mL streptomycin, and 10% (v/v) heat inactivated fetal bovine serum (HI FBS, Invitrogen 16140). The cells were seeded at 2×10^4/cm^2 and used 3 days after initiation of culture. During all incubations, the cells were kept in an atmosphere of 5% CO2, 90-100% humidity, and 37° C. Cells were harvested by trypsinization for 3 minutes in 0.25% trypsin-1 mM EDTA and resuspended in an equal volume of culture medium. A viable cell count was obtained by trypan blue exclusion and an appropriate volume of the cell suspension (to have 33% more viable cells than was sufficient for the experiment) was placed in a polypropylene centrifuge tube. Cells were pelleted by centrifugation at 350×g for 10 minutes at room temperature, resuspended in Dulbecco's Phosphate Buffered Saline (D-PBS, Invitrogen 14040) and centrifuged a second time. Cells were then resuspended to two-thirds the final volume needed in Dulbecco' ? s Modified Eagle's Medium (DME, Sigma D5030) containing 10% HI FBS and penicillin-streptomycin but without glucose, L-glutamine, sodium pyruvate, and phenol red. An aliquot was counted by trypan blue exclusion and the cell density was adjusted to 1.28×10^5/mL. Cells were plated in 100 μL/well in wells of standard, 96-well plates (4×10^4 cells/cm^2) and allowed to adhere overnight prior to addition of test chemicals.
For assay, the culture medium was aspirated, the wells were washed once with D-PBS and 170 μL of DME were added to each well, followed by 30 μL of the appropriate dilution of each test energy source. Stocks of 133 mM of each test chemical were prepared in tissue culture grade water, sterile filtered, and dilutions were prepared in a master plate so that, upon dilution into a regular 96-well MICROPLATE a total well volume of 200 μL, the final concentrations would be 0.033 to 20 mM. Negative control wells received 30 μL of tissue culture grade water. For each plate containing energy sources and cells, a second, control plate containing only energy sources was prepared. Plates were incubated at 5% CO2, 90-100% humidity, and 37° C. for 48 to 72 hours prior to addition of the MTS/PMS colorometric reagent (10 μL/well). The color formed in each well 4-24 hours after addition of the calorimetric reagent, was measured with a plate reader at 490 nm with a reference wavelength of 650 nm. OD values from the control plate were subtracted from the OD values obtained with cells prior to normalizing the data to % negative control (cells without added energy source).

In assay [5] the test system is Undifferentiated HL-60 cells. In words: Energy use by undifferentiated HL-60 cells. It counts as cell-based, human. Conditions: Homo sapiens, HL-60, 24 h, read-out: Energy Use by Undifferentiated HL-60 Cells.
Assay [6] relates to DMSO-differentiated HL-60 cells. The experiment in a line: Energy use by DMSO-differentiated HL-60 cells. It counts as cell-based, human. Particulars: Homo sapiens, HL-60, 24 h, read-out: Energy Use by DMSO-Differentiated HL-60 Cells. As for the experimental part:
In this Example, methods for testing in vitro-differentiated cells for their ability to use multiple energy sources are described. Prior to differentiation, HL-60 cells were cultured as described in Example 27. DMSO-induced differentiation (Odani et al., Res. Commun. Mol. Pathol. Pharmacol. 108:381-391 [2000]; and Yamaguchi et al., Biol. Pharm. Bull. 20:943-947 [1997]) was accomplished by incubation of the cells in the presence of 1.25% DMSO for 3 days.
After washing, HL-60 cells were resuspended in DME-R. An aliquot of the cell suspension was counted by trypan blue exclusion and the cell density was adjusted to 6.67×10^5/mL. Fifty μL of DME-R were added to each well of the appropriate number of half area, 96-well plates, followed by 25 μL of the appropriate dilution of each test energy source. Stocks of 133 mM of each test chemical were prepared in tissue culture grade water, sterile filtered, and dilutions were prepared in a master plate so that, upon dilution into a half-area 96-well microtiter plate to a total well volume of 150 μL, the final concentrations would be 0.033 to 20 mM. Negative control wells received 25 μL of tissue culture grade water. The cells were plated at a volume of 75 μL/well, giving a final cell density of 5×10^4/well. For each plate containing energy sources and cells, a second, control plate containing only energy sources was prepared with the same total volume of liquid (148 μL/well). Plates were incubated at 5% CO2, 90-100% humidity, and 37° C. for 24 hours prior to addition of the MTS/MPMS calorimetric reagent (7.5 μL/well). The color formed in each well 24 hours after addition of the colorimetric reagent, was measured with a plate reader at 490 nm with a reference wavelength of 650 nm. OD values from the control plate were subtracted from the OD values obtained with cells prior to normalizing the data to % negative control (cells without added energy source).

Setting [7] is: Homo sapiens, HL-60, read-out: HL-60 Cell Responses to Selected Compounds from PM1 and PM2.

The structures appear in SMILES notation.

The results in this text go back to patent US9274101B2 (BIOLOG, Inc., priority 2001, dated 2016).

For the compound `O=C[C@@H](O)[C@@H](O)[C@H](O)[C@H](O)COP(=O)(O)O` [mannose 6-phosphate], the “suitability as phosphorus source (growth, purple color)” value (from here on “suitability as phosphorus source”) in assay [1] is listed as “positive”.

For the compound `O=S(=O)(O)CCO` [isethionate], the “suitability as sulfur source (growth, purple color)” value (shortened to “suitability as sulfur source”) in assay [1] is on record as “positive”.

Take `N[C@@H](CSC[C@H](N)C(=O)O)C(=O)O` [lanthionine]: the “suitability as sulfur source” value in assay [1] is listed as “positive”.

Regarding `N[C@H]1C(OP(=O)(O)O)O[C@H](CO)[C@@H](O)[C@@H]1O` (stereo partly drawn) [glucosamine 1-phosphate], the “suitability as phosphorus source” value in assay [1] is recorded as “positive”.

As to `Nc1ccn([C@@H]2O[C@@H]3COP(=O)(O)O[C@H]3[C@H]2O)c(=O)n1` [cytidine 3′:5′-cyclic monophosphate], the “suitability as phosphorus source” value in assay [1] is on record as “not suitable”.

`O=c1ccn([C@@H]2O[C@H](CO)[C@H]3OP(=O)(O)O[C@H]32)c(=O)[nH]1` [uridine 2′:3′-cyclic monophosphate]: the “suitability as phosphorus source” value in assay [1] is given as “positive”.

`NCCS(=O)O` [hypotaurine]: in assay [1], the “suitability as sulfur source” value is given as “positive”.

For the compound `O=S1(=O)CCCC1` [tetramethylene sulfone], in assay [1], the “suitability as sulfur source” value was “not suitable”.

Take `N=C(N)NCCC[C@H](N)C(=O)O` [L-arginine]: in assay [2], the “suitability as nitrogen source (growth, purple color)” value is on record as “positive”. Further, the response in words result in assay [3] is on record as “strongly utilized, even at very low concentrations”. Besides, in assay [3] (setting [7]), the activity at 30 µM is 134%, the activity at 100 µM came to 138%, the activity at 330 µM turned out to be 131% and the activity at 1000 µM was found to be 138%. In assay [3] (setting [7]), the activity at 3300 µM was determined as 132%, the activity at 10000 µM was determined as 128%, the activity at 15000 µM is 108% and the activity at 20000 µM was determined as 109%. In assay [4], the activity at 30 µM is 127%, the activity at 100 µM was 144%, the activity at 330 µM turned out to be 165% and the activity at 1000 µM worked out at 142%. In assay [4], the activity at 3300 µM amounted to 154%, the activity at 10000 µM is 119%, the activity at 15000 µM turned out to be 90.8% and the activity at 20000 µM stood at 60.3%. In assay [5], the activity at 30 µM was 124%, the activity at 100 µM was 118%, the activity at 330 µM came out at 114% and the activity at 1000 µM is 109%. In addition, in assay [5], the activity at 3300 µM was found to be 115%, the activity at 10000 µM stood at 132%, the activity at 15000 µM is 140% and the activity at 20000 µM was determined as 126%. Further, in assay [6], the activity at 30 µM was 106%, the activity at 100 µM stood at 103%, the activity at 330 µM came to 122% and the activity at 1000 µM was 126%. In assay [6], the activity at 3300 µM amounted to 123%, the activity at 10000 µM turned out to be 132%, the activity at 15000 µM is 119% and the activity at 20000 µM amounted to 93.4%.

As for `C[C@H](CCC(=O)NCCS(=O)(=O)O)[C@H]1CC[C@H]2[C@@H]3[C@H](O)C[C@@H]4C[C@H](O)CC[C@]4(C)[C@H]3C[C@H](O)[C@]12C` [taurocholic acid], the “suitability as sulfur source” value in assay [1] was “positive”.

As for `Cc1cn([C@H]2C[C@H](OP(=O)(O)O)[C@@H](CO)O2)c(=O)[nH]c1=O` [thyrnidine 3′-monophosphate], the “suitability as phosphorus source” value in assay [1] is reported as “positive”.

Turning to `CCCCCCCCCCCCS(=O)(=O)O` [1-dodecane-sulfonic acid], the “suitability as sulfur source” value in assay [1] was “not suitable”.

For the compound `O=c1ccn([C@@H]2O[C@H](CO)[C@@H](O)[C@H]2OP(=O)(O)O)c(=O)[nH]1` [uridine 2′-monophosphate], the “suitability as phosphorus source” value in assay [1] was “positive”.

Consider `O=C(O)CS` [thioglycolic acid], for which the “suitability as sulfur source” value in assay [1] is reported as “not suitable”.

Turning to `Nc1nc2c(ncn2[C@@H]2O[C@H](CO)[C@H]3OP(=O)(O)O[C@H]32)c(=O)[nH]1` [guanosine 2′:3′-cyclic monophosphate], the “suitability as phosphorus source” value in assay [1] was “positive”.

Take `NCCP(=O)(O)O` [2-aminoethyl phosphonate]: in assay [1], the “suitability as phosphorus source” value is “weak positive”.

Consider `O=P(O)(O)OC(CO)CO` [β-glycerophosphate], for which, in assay [1], the “suitability as phosphorus source” value is listed as “positive”.

As to `O=P(O)(O)CP(=O)(O)O` [methylene diphosphonic acid], the “suitability as phosphorus source” value in assay [1] is given as “not suitable”.

As to `N[C@H](Cc1ccc(OP(=O)(O)O)cc1)C(=O)O` [O-phospho-D-tyrosine], the “suitability as phosphorus source” value in assay [1] is “positive”.

Take `CSCCC(NC(C)=O)C(=O)O` (racemic) [N-acetyl-DL-methionine]: the “suitability as sulfur source” value in assay [1] is “positive”.

Consider `O=S(=O)(O)SSS(=O)(=O)O` [tetrathionate], for which, in assay [1], the “suitability as sulfur source” value was “positive”.

In the case of `Cc1cn([C@H]2C[C@@H]3OP(=O)(O)OC[C@H]3O2)c(=O)[nH]c1=O` [thymidine 3′:5′-cyclic monophosphate], in assay [1], the “suitability as phosphorus source” value was “not suitable”.

In the case of `O=C[C@@H](O)[C@H](O)[C@H](O)COP(=O)(O)O` [arabinose 5-phosphate], the “suitability as phosphorus source” value in assay [1] is on record as “positive”.

`N[C@@H](COP(=O)(O)O)C(=O)O` [O-phospho-L-serine]: in assay [1], the “suitability as phosphorus source” value is “positive”.
